# Results from patent US20260219274A1, “POLYOL SWEETNERS AND CARDIOVASCULAR AND THROMBOTIC EVENT RISK” (THE CLEVELAND CLINIC FOUNDATION, priority 2023, published 2026).
# What was measured:
# [1] = system: stable subjects undergoing elective diagnostic cardiac evaluations (Discovery Cohort); details: in vivo
# Text: Our first study employed a Discovery Cohort, where we used untargeted metabolomics (semi-quantitative analyses) to analyze plasma samples from 1,157 stable subjects to identify circulating analytes whose levels were associated with future development of adverse cardiovascular events over an ensuing 3 year period. The Discovery Cohort included sequential stable patients (ages 18 years or above) undergoing elective diagnostic coronary angiography for risk evaluation at a quaternary referral center between 2001 and 2007 (GeneBank at the Cleveland Clinic; clinicaltrials.gov identifier: NCT00590200) with clinical and longitudinal outcomes.
# In both, the Discovery and Validation Cohorts, Major Adverse Cardiovascular Events (MACE) were defined as death, nonfatal myocardial infarction, or nonfatal cerebrovascular accident (stroke) during follow-up. Adjudicated long term survival data were collected through medical records review and Social Security Death Index query. Cardiovascular disease (CVD) was indicated as presence of peripheral artery disease or coronary artery disease, indicated as any clinical history of myocardial infarction, coronary revascularization (including percutaneous coronary intervention, coronary artery bypass surgery), or angiographic evidence of significant stenosis (≥50%) in 1 or more major coronary arteries. Estimated glomerular filtration rate (eGFR) in both cohorts was calculated based on the recent Chronic Kidney Disease Epidemiology Collaboration 2021 CKD-EPI Creatinine equation.^37 Platelet-related hematology analyses were performed with an Advia 120 hematology analyzer (Siemens, New York, NY).^38 Use of anti-platelet agents (=1556) was defined as either aspirin or a P2Y12 agent or both. All observational studies in this example are reported in compliance with the STrengthening the Reporting of Observational studies in Epidemiology (STROBE)-Statement.^39 Information on gender of study participants of the Discovery and Validation Cohorts is reported in Table 1-3.
# For untargeted mass spectrometry analyses, subject plasma samples were derivatized and run on GC-MS analyses as previously described.^19 Raw data files were processed using the metabolomics BinBase database.^45
# Continuous variables are summarized as median (interquartile range [IQR]), and categorical variables are presented as %. Difference between groups (e.g. tertiles or quartiles) were examined using Kruskal Wallis test for continuous variables and chisq (χ^2) test for categorical variables. Kaplan-Meier analysis with Cox proportional-hazards regression was used for time-to-event analysis to determine hazard ratios (HR) and 95% confidence intervals (CI) for incident MACE. Adjustments included traditional cardiovascular risk factors (age, sex, diabetes mellitus, systolic blood pressure, low-density lipoprotein cholesterol levels, high-density lipoprotein cholesterol levels, triglyceride levels, smoking status) and high-sensitivity C-reactive protein (hsCRP). We confirmed that the proportionality hazards assumptions were met using the Schoenfeld residuals against the transformed time. Mann-Whitney U-test or Wilcoxon matched-pairs signed rank test were applied to continuous variables to examine differences between 2 groups. Kruskal-Wallis test with Dunn's post hoc test was used for pairwise multiple comparisons of ranked data. Two-way ANOVA with Šidák's multiple comparison post hoc test was used for multiple-group comparisons of aggregometry responses using different concentrations of agonists. For analysis of collagen-dependent platelet adhesion in whole blood, a two-way repeated measures ANOVA with Sidák's multiple comparison post hoc test was used. All reported measurements represent distinct samples. Data analyses were performed with R software (version 4.0.2) and GraphPad Prism software (version 9.1.2). A two-sided P<0.05 was considered statistically significant. […]
# [2] = system: washed human platelets; test: Platelet flow cytometry assay (P-selectin, PAC-1); assay type: cell-based; details: for ADP-stimulated P-selectin surface expression / ADP-stimulated glycoprotein α2β3 (GP IIb/IIIa) activation: pre-incubation with the polyol, ADP 2 μM
# Procedure: Antibody staining of washed platelets for flow cytometry was performed as described previously^41 with further information outlined in additional methods. […]
# Washed platelets and antibody staining for flow cytometry was performed as described previously using sodium citrate (0.109 M) as anti-coagulant^51. Washed platelets were separated by centrifugation at 500×g for 10 min and re-suspended in modified Hank's buffered salt solution without PGE1. Final platelet suspensions (100 μL; 2×10^8 platelets/mL) were then pre-incubated with erythritol, glucose or 1,5-AHG (at indicated concentrations) for 30 min at 22° C. Platelets were then stimulated with 2 μM ADP for 10 min and incubated with PE conjugated anti-P-selectin (CD62P-PE, Catalogue #555524, BD PharMingen, San Diego, CA, USA; 2.5 μL/100 μL) or Fluorescein isothiocyanate (FITC) conjugated PAC1 (binds only to active conformation of GP IIb/IIIa, Catalogue #3 40507, BD PharMingen, San Diego, CA, USA; 5 μL/100 μL) or isotype control antibody (PE IgG isotype control, Catalogue #555749 or FITC IgM Isotype control, Catalogue #555583, BD PharMingen, San Diego, CA, USA) in the dark for 20 min. The platelet suspensions were then fixed with 100 μL of 2% paraformaldehyde. Data was acquired on a flow cytometer (FACS LSR Fortessa, BD Biosciences, Franklin Lakes, New Jersey, USA). Twenty thousand (20,000) events were collected. The data was analyzed with FACSDiva Software (v.9.0) (BD Biosciences). Platelets were gated to exclude doublets (FIG. 28) and the raw mean fluorescent intensity (MFI) of either P-selectin (CD62P) or PAC-1 was quantified.
SMILES,HR for MACE [1],HR with 95% CI [1],adjusted HR for incident MACE [1],ADP-stimulated P-selectin surface expression [2],ADP-stimulated glycoprotein α2β3 (GP IIb/IIIa) activation [2],"erythritol concentration eliciting significant stimulus-dependent enhancement in P-selectin surface expression ([2]; threshold, FIG. 17)","erythritol concentration eliciting significant stimulus-dependent enhancement in activated GP IIbIIIa surface expression ([2]; threshold, FIG. 17)",adjusted HR [95% CI] for incident (3 year) MACE [1],hazard ratio (HR) [95% CI] for incident (3 year) MACE [1]
OC[C@@H](O)[C@@H](O)CO [erythritol],3.22 [95% CI 1.91-5.41],1.31 (1.17-1.46),2.95 [1.70-5.12],dose-dependent enhancement,dose-dependent enhancement,18 µM,4.5 µM,,
OC[C@@H](O)[C@H](O)[C@@H](O)CO [xylitol],,,,dose-dependent enhancement,dose-dependent enhancement,,,1.64 [1.05-2.56],1.63 [1.04-2.53]
